Counter-ions that a name gives are not always drawn.
Experiments:
[1] = Storage stability of the drug substance, HPLC analysis; type: physicochemical; details: double polyethylene bags inside a fibreboard drum
Description: • 1) Eletriptan hydrobromide monohydrate was stored in double polyethylene bags inside a fibreboard drum under the following conditions: • 25° C./60% RH for 9 months • 30° C./60% RH for 9 months • 40° C./75% RH for 6 months • (RH=relative humidity)

[2] = Moisture sorption by Dynamic Vapour Sorption (DVS); type: physicochemical; details: 30° C.
Description: The moisture sorption of eletriptan hydrobromide monohydrate was determined using a Dynamic Vapour Sorption (DVS) Automated Sorption Analyser Model DVS-1 instrument manufactured by Surface Measurements Systems Ltd., UK.
Approximately 25 mg of eletriptan hydrobromide monohydrate was accurately weighed into a sample pan. This was exposed to humidities in the range of from 0 to 90% RH. The analysis was carried out in detail in the range of from 0 to 15% RH, using 15% RH steps in the range of from 15 to 90% RH. The analysis temperature was 30° C. with a nitrogen flow rate of 200 cm^3min^−1.
Once the monohydrate has formed there is very little additional moisture sorbed and within the range 10 to 90% RH less than 0.3% w/w of water is sorbed.

[3] = on further processing; cited from earlier work
[4] = 4 weeks at 40° C. and 90% relative humidity; cited from earlier work

SMILES: CN1CCC[C@@H]1Cc1c[nH]c2ccc(CCS(=O)(=O)c3ccccc3)cc12 [eletriptan hydrobromide monohydrate]
- degradation on storage (HPLC) ([1]; 25° C./60% RH for 9 months): no degradation had occurred
- degradation on storage (HPLC) ([1]; 30° C./60% RH for 9 months): no degradation had occurred
- degradation on storage (HPLC) ([1]; 40° C./75% RH for 6 months): no degradation had occurred
- hygroscopicity ([2]; 0 to 90% RH): essentially non-hygroscopic
- hydrate state ([2]; above 6% RH): remains as a monohydrate
- water lost (water of the monohydrate) ([2]; at 0% RH): 3.8 % w/w
- water sorbed ([2]; within the range 10 to 90% RH): less than 0.3 % w/w

SMILES: Br.CN1CCC[C@@H]1Cc1c[nH]c2ccc(CCS(=O)(=O)c3ccccc3)cc12 [anhydrous eletriptan hydrobromide]
- stability of the solid form [3]: unstable and to undergo polymorphic conversion to the alpha-form
- water absorbed on standing [4]: ≤ 1.23 % by weight
